The results in this text go back to patent publication US12473296B2, “Perk inhibiting compounds” (HiberCell, Inc., priority 2019, dated 2025).

SMILES strings stand for the structures.

The target in one assay is PERK (Homo sapiens (Human), UniProt Q9NZJ5). The assay can be described thus: PERK cellular assay (TR-FRET, HEK293-EGFP-eIF2α cells, tunicamycin-induced ER stress). Format: cell-based. To be noted: tunicamycin 2 hours, read-out: Cellular IC50 (μM) (EIF2a). The method in brief:
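Cells pre-incubated with inhibitor 30 min at 37 °C, then ER stress induced with […] tunicamycin for 2 h. TR-FRET read on lysates; ratio normalized to DMSO control as percent inhibition over a 10-point, 3-fold dilution series; IC50 from 4-parameter logistic fit.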
Background: Time-resolved FRET reads energy transfer from a long-lived donor to a nearby acceptor.

Assay [1] has as its target EIF2AK3 (PERK) catalytic domain (amino acids 536-1116) (Homo sapiens (Human), UniProt Q9NZJ5). The assay can be described thus: PERK in vitro activity assay (isolated), TR-FRET kinase assay. Particulars: isolated PERK enzyme, 1.5 μM ATP, GFP-eIF2a substrate; read-out: Biochemical IC50. The text has this: PERK In Vitro Activity Assay (Isolated):
In vitro Inhibition of PERK Enzyme Activity (isolated) Recombinant human EIF2AK2 (PKR) catalytic domain (amino acids 252-551), EIF2AK3 (PERK) catalytic domain (amino acids 536-1116), GFP-eIF2a substrate, and Terbium-labelled phospho-eIF2a antibody is obtained (Invitrogen, Carlsbad, CA).
Express and purify HIS-SUMO-GCN2 catalytic domain (amino acids 584-1019) from E. coli. Perform TR-FRET kinase assays in the absence or presence of inhibitors in a reaction buffer consisting of 50 mM HEPES, pH 7.5, 10 mM MgCb, 1.0 mM EGTA, and 0.01% Brij-35, and 100-200 nM GFP-eIF2a substrate. […] Add test compound, initiate the reaction by addition of enzyme, and incubate at room temperature for 45 minutes. Stop the reaction by addition of EDTA to a final concentration of 10 mM, add Terbium-labelled phospho-eIF2a antibody at a final concentration of 2 nM, and incubate for 90 minutes. Monitor the resulting fluorescence in an EnVison® Multilabel reader (PerkinElmer, Waltham, MA). Determine TR-FRET ratios and the resulting IC50 values using a 4-parameter nonlinear logistic equation as shown: Y=(A+((B−A)/(1+((C/x)[…])))) where, Y=% specific inhibition, A=Bottom of the curve, B=Top of the curve, C=absolute IC50 (concentration causing 50% inhibition), and D=hill slope.

PERK, sequence (Q9NZJ5 30-1116): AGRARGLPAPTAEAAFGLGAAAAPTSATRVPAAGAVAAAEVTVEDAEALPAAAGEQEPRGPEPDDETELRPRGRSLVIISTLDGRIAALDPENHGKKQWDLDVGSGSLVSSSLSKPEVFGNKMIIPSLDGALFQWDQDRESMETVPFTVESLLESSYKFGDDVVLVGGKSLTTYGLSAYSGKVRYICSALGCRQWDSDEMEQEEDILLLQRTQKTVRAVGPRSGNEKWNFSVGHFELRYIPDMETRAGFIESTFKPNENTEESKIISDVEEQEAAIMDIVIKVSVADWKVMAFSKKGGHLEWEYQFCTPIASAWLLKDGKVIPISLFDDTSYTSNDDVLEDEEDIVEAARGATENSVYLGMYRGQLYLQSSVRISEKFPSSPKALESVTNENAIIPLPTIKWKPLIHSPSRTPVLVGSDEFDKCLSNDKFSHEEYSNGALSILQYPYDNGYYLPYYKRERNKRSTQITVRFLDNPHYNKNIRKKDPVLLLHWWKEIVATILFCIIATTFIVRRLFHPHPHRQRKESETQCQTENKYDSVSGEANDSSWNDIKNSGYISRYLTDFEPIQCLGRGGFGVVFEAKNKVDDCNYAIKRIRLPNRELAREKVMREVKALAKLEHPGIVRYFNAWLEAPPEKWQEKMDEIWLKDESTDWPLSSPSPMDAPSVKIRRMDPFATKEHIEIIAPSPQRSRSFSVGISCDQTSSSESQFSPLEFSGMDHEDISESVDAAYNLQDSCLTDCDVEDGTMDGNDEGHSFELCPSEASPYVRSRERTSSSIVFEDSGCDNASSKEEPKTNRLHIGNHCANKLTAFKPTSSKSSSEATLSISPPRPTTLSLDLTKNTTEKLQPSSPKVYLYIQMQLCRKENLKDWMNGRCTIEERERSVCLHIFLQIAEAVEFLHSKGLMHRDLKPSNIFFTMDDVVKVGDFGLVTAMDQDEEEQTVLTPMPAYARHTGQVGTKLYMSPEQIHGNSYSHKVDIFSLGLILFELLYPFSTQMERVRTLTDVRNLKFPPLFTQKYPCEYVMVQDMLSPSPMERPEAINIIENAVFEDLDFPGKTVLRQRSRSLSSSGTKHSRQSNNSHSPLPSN
EIF2AK3 (PERK) catalytic domain (amino acids 536-1116), sequence (Q9NZJ5 536-1116): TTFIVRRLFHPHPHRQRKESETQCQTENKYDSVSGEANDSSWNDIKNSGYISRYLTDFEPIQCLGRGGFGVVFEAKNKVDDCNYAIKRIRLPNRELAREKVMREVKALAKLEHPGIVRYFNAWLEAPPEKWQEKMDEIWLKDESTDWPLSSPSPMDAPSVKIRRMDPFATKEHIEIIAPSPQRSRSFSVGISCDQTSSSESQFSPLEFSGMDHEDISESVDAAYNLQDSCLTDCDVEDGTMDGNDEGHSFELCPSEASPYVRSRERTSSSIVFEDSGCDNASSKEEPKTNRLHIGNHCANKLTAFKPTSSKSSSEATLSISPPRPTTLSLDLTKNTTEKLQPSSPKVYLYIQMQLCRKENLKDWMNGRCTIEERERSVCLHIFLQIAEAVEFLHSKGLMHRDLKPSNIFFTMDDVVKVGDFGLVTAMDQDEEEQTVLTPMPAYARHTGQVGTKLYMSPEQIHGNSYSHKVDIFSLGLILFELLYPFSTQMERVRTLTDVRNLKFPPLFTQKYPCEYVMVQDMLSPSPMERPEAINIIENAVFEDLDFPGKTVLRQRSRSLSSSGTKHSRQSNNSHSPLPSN

What is called IC50 is the point on the concentration scale where inhibition reaches its midpoint. In the case of `Cc1cc(NC(=O)C(O)c2cc(F)cc(F)c2)ccc1-c1cnc(N)c(C(=O)NC2COC2)c1` (centres unmarked) [Example 24, 2-amino-5-(4-(2-(3,5-difluorophenyl)-2-hydroxyacetamido)-2-methylphenyl)-N-(oxetan-3-yl)nicotinamide], the IC50 lay within 0.051 to 0.1 µM at PERK and 1 to 25 nM in assay [1].

In the case of `Cc1cc(NC(=O)C(O)c2cc(F)cc(F)c2)ccc1-c1cnc(N)c(C(=O)NC2COC2)c1` (centres unmarked) [Example 25, 2-amino-5-(4-(2-(3,5-difluorophenyl)-2-hydroxyacetamido)-2-methylphenyl)-N-(oxetan-3-yl)nicotinamide], the results for the IC50 (on PERK; in assay [1]) were 0.501 to 1 µM and 26 to 50 nM, respectively.

In the case of `Cc1cc(NC(=O)C(O)c2cc(F)cc(F)c2)ccc1-c1cnc(N)c(C(=O)NC2CC(O)C2)c1` (centres unmarked) [Example 26, 2-amino-5-(4-(2-(3,5-difluorophenyl)-2-hydroxyacetamido)-2-methylphenyl)-N-(3-hydroxycyclobutyl) nicotinamide], the figures for the IC50 (at PERK; in assay [1]) were 0.101 to 0.25 µM and 1 to 25 nM, respectively.

In the case of `Cc1cc(NC(=O)C(O)c2cc(F)cc(F)c2)ccc1-c1cnc(N)c(C(=O)NC2CC(O)C2)c1` (centres unmarked) [Example 27, 2-amino-5-(4-(2-(3,5-difluorophenyl)-2-hydroxyacetamido)-2-methylphenyl)-N-(3-hydroxycyclobutyl) nicotinamide], the IC50 was in the range of 1 to 2 µM on PERK and 51 to 100 nM in assay [1].

As for `COC1CC(NC(=O)c2cc(-c3ccc(NC(=O)C(O)c4cc(F)cc(F)c4)cc3C)cnc2N)C1` (centres unmarked) [Example 28, 2-amino-5-(4-(2-(3,5-difluorophenyl)-2-hydroxyacetamido)-2-methylphenyl)-N-(3-methoxycyclobutyl) nicotinamide], the IC50 is 0.026 to 0.05 µM on PERK and 1 to 25 nM in assay [1].

With `COC1CC(NC(=O)c2cc(-c3ccc(NC(=O)C(O)c4cc(F)cc(F)c4)cc3C)cnc2N)C1` (centres unmarked) [Example 29, 2-amino-5-(4-(2-(3,5-difluorophenyl)-2-hydroxyacetamido)-2-methylphenyl)-N-(3-methoxycyclobutyl) nicotinamide], the IC50 at PERK was 0.251 to 0.5 µM; in assay [1] it was 26 to 50 nM.

In the case of `CC(=O)N1CC(NC(=O)c2cc(-c3ccc(NC(=O)C(O)c4cc(F)cc(F)c4)cc3C)cnc2N)C1` (centres unmarked) [Example 30, N-(1-acetylazetidin-3-yl)-2-amino-5-(4-(2-(3,5-difluorophenyl)-2-hydroxyacetamido)-2-methylphenyl) nicotinamide], the results for the IC50 (at PERK; in assay [1]) were 0.501 to 1 µM and 1 to 25 nM, respectively.

Take `CC(=O)N1CC(NC(=O)c2cc(-c3ccc(NC(=O)C(O)c4cc(F)cc(F)c4)cc3C)cnc2N)C1` (centres unmarked) [Example 31, N-(1-acetylazetidin-3-yl)-2-amino-5-(4-(2-(3,5-difluorophenyl)-2-hydroxyacetamido)-2-methylphenyl) nicotinamide]: the results for the IC50 (on PERK; in assay [1]) were 3 to 4 µM and 51 to 100 nM, respectively.

For `CC(C)NC(=O)c1cc(-c2ccc(NC(=O)C(O)c3cc(F)cc(F)c3)cc2F)cnc1N` (centres unmarked) [Example 32, 2-amino-5-(4-(2-(3,5-difluorophenyl)-2-hydroxyacetamido)-2-fluorophenyl)-N-isopropylnicotinamide], the IC50 on PERK was in the range of 0.051 to 0.1 µM; in assay [1] it was 1 to 25 nM.

Take `CC(C)NC(=O)c1cc(-c2ccc(NC(=O)C(O)c3cc(F)cc(F)c3)cc2F)cnc1N` (centres unmarked) [Example 33, 2-amino-5-(4-(2-(3,5-difluorophenyl)-2-hydroxyacetamido)-2-fluorophenyl)-N-isopropylnicotinamide]: the values for the IC50 (on PERK; in assay [1]) were 0.251 to 0.5 µM and 101 to 250 nM, respectively.

For the molecule `CC(C)NC(=O)c1cc(-c2ccc(NC(=O)C(O)c3cc(F)cc(F)c3)cc2C(F)(F)F)cnc1N` (centres unmarked) [Example 36, 2-amino-5-(4-(2-(3,5-difluorophenyl)-2-hydroxyacetamido)-2-(trifluoromethyl)phenyl)-N-isopropylnicotinamide], the IC50 on PERK fell in the range of 0.051 to 0.1 µM; in assay [1], 1 to 25 nM.

Consider `CC(C)NC(=O)c1cc(-c2ccc(NC(=O)C(O)c3cc(F)cc(F)c3)cc2C(F)(F)F)cnc1N` (centres unmarked) [Example 37, 2-amino-5-(4-(2-(3,5-difluorophenyl)-2-hydroxyacetamido)-2-(trifluoromethyl)phenyl)-N-isopropylnicotinamide], for which the IC50 lay within 0.251 to 0.5 µM at PERK and 101 to 250 nM in assay [1].

Consider `Cc1cc(NC(=O)C(O)c2cc(F)cc(F)c2)ccc1-c1cnc(N)c(C(=O)NC(C)C)c1` (centres unmarked) [Example 40, 2-amino-5-(4-(2-(3,5-difluorophenyl)-2-hydroxyacetamido)-2-methylphenyl)-N-isopropylnicotinamide], for which the results for the IC50 (on PERK; in assay [1]) were 0.026 to 0.05 µM and 1 to 25 nM, respectively.

Regarding `Cc1cc(NC(=O)C(O)c2cc(F)cc(F)c2)ccc1-c1cnc(N)c(C(=O)O)c1` (centres unmarked) [Example 41, 2-amino-5-(4-(2-(3,5-difluorophenyl)-2-hydroxyacetamido)-2-methylphenyl) nicotinic acid], the IC50 at PERK was > 5 µM; in assay [1], 101 to 250 nM.

With `Cc1cc(NC(=O)C(O)c2cc(F)cc(F)c2)ccc1-c1cnc(N)c(C(=O)NC2CNC2)c1` (centres unmarked) [Example 44, 2-amino-N-(azetidin-3-yl)-5-(4-(2-(3,5-difluorophenyl)-2-hydroxyacetamido)-2-methylphenyl) nicotinamide], the values for the IC50 (at PERK; in assay [1]) were 3 to 4 µM and 1 to 25 nM, respectively.

On to `Cc1cc(NC(=O)C(O)c2cc(F)cc(F)c2)ccc1-c1cnc(N)c(C(=O)NC2CNC2)c1` (centres unmarked) [Example 45, 2-amino-N-(azetidin-3-yl)-5-(4-(2-(3,5-difluorophenyl)-2-hydroxyacetamido)-2-methylphenyl) nicotinamide], for which the IC50 on PERK was > 5 µM; in assay [1], 51 to 100 nM.

For `Cc1cc(NC(=O)C(O)c2cc(F)cc(F)c2)ccc1-c1cnc(N)c(C(=O)NC2CN(C)C2)c1` (centres unmarked) [Example 46, 2-amino-5-(4-(2-(3,5-difluorophenyl)-2-hydroxyacetamido)-2-methylphenyl)-N-(1-methylazetidin-3-yl)nicotinamide], the IC50 lay within 0.501 to 1 µM at PERK and 1 to 25 nM in assay [1].

In the case of `Cc1cc(NC(=O)C(O)c2cc(F)cc(F)c2)ccc1-c1cnc(N)c(C(=O)NC2CN(C)C2)c1` (centres unmarked) [Example 47, 2-amino-5-(4-(2-(3,5-difluorophenyl)-2-hydroxyacetamido)-2-methylphenyl)-N-(1-methylazetidin-3-yl)nicotinamide], the IC50 fell in the range of 1 to 2 µM at PERK and 1 to 25 nM in assay [1].

Turning to `Cc1cc(NC(=O)C(O)c2cc(F)cc(F)c2)ccc1-c1cnc(N)c(C(=O)NCCO)c1` (centres unmarked) [Example 56, 2-amino-5-(4-(2-(3,5-difluorophenyl)-2-hydroxyacetamido)-2-methylphenyl)-N-(2-hydroxyethyl) nicotinamide], the IC50 at PERK was in the range of 0.251 to 0.5 µM; in assay [1], 1 to 25 nM.

With `Cc1cc(NC(=O)C(O)c2cc(F)cc(F)c2)ccc1-c1cnc(N)c(C(=O)NCCO)c1` (centres unmarked) [Example 57, 2-amino-5-(4-(2-(3,5-difluorophenyl)-2-hydroxyacetamido)-2-methylphenyl)-N-(2-hydroxyethyl) nicotinamide], the IC50 on PERK lay within 2 to 3 µM; in assay [1] it was 101 to 250 nM.

As for `Cc1cccc(C(O)C(=O)Nc2ccc(-c3cnc(N)c(C(=O)NC(C)C)c3)c(C)c2)c1` (centres unmarked) [Example 66, 2-amino-5-(4-(2-hydroxy-2-(m-tolyl)acetamido)-2-methylphenyl)-N-isopropylnicotinamide], the IC50 on PERK lay in the range of 1 to 2 µM; in assay [1], 101 to 250 nM.

For the molecule `Cc1cccc(C(O)C(=O)Nc2ccc(-c3cnc(N)c(C(=O)NC(C)C)c3)c(C)c2)c1` (centres unmarked) [Example 67, 2-amino-5-(4-(2-hydroxy-2-(m-tolyl)acetamido)-2-methylphenyl)-N-isopropylnicotinamide], the IC50 lay in the range of 0.051 to 0.1 µM on PERK and 1 to 25 nM in assay [1].

With `Cc1cc(NC(=O)C(O)c2cccc(Cl)c2)ccc1-c1cnc(N)c(C(=O)NC(C)C)c1` (centres unmarked) [Example 68, 2-amino-5-(4-(2-(3-chlorophenyl)-2-hydroxyacetamido)-2-methylphenyl)-N-isopropylnicotinamide], the IC50 on PERK was in the range of 0.501 to 1 µM; in assay [1] it was 101 to 250 nM.

On to `Cc1cc(NC(=O)C(O)c2cccc(Cl)c2)ccc1-c1cnc(N)c(C(=O)NC(C)C)c1` (centres unmarked) [Example 69, 2-amino-5-(4-(2-(3-chlorophenyl)-2-hydroxyacetamido)-2-methylphenyl)-N-isopropylnicotinamide], for which the IC50 at PERK fell in the range of 0.026 to 0.05 µM; in assay [1] it was 1 to 25 nM.

Take `Cc1cc(NC(=O)C(O)c2cccc3c2OCC3)ccc1-c1cnc(N)c(C(=O)NC(C)C)c1` (centres unmarked) [Example 74, 2-amino-5-(4-(2-(2,3-dihydrobenzofuran-7-yl)-2-hydroxyacetamido)-2-methylphenyl)-N-isopropylnicotinamide]: the IC50 was in the range of 1 to 2 µM at PERK and 251 to 500 nM in assay [1].
